Laboratory results taken from article PMC8824665, “Rapid Assessment of Insect Steroid Hormone Entry Into Cultured Cells” (Frontiers in Physiology, 2022).
Like-named read-outs stand apart in the source and are kept apart here.

Target: T1, EcR-RXR (EcR-LgBiT / RXR-SmBiT) (Drosophila melanogaster, UniProt P34021)
T1 construct: full-length EcR with C-terminal LgBiT (pFC34K-EcR) and RXR with C-terminal SmBiT (pFC36K-RXR), expressed in HEK293T cells; heterodimer; probably human RXR-alpha
T1 sequence (P34021 1-878): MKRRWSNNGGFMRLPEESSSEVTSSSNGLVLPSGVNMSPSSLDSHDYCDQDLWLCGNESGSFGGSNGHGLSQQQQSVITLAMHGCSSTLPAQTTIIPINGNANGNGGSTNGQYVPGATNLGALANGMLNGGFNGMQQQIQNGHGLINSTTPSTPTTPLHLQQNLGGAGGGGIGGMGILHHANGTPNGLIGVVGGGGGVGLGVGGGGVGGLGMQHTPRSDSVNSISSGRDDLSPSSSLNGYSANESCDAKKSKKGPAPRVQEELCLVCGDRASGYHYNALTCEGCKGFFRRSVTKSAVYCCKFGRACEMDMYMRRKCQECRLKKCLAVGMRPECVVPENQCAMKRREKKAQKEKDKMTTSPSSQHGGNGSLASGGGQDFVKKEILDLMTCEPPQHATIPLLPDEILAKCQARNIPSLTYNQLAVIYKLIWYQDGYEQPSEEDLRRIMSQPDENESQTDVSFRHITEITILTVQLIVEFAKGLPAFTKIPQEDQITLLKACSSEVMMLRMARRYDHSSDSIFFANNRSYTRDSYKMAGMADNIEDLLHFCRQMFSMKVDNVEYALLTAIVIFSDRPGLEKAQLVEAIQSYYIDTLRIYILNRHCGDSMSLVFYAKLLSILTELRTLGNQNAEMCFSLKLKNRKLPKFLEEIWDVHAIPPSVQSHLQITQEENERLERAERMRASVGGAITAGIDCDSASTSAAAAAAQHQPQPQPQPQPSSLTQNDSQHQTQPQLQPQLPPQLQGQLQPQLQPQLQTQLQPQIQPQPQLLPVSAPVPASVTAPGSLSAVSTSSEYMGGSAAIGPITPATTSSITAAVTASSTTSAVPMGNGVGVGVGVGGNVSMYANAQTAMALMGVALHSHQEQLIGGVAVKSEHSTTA
T1 sequence (P19793 1-462 partner): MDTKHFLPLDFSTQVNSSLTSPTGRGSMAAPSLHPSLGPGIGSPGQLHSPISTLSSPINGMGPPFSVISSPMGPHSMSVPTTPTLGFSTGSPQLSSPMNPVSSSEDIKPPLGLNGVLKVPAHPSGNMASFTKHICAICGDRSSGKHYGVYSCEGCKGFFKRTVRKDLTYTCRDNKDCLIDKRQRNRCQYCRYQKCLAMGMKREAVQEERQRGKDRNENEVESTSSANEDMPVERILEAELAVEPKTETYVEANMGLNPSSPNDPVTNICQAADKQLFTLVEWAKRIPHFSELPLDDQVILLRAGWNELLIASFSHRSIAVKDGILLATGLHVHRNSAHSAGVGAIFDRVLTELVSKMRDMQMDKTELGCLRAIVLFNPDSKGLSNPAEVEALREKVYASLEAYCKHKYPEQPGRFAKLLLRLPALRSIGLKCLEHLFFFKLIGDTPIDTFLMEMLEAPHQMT
Assay: NanoBiT split-luciferase assay of ligand-induced EcR-RXR heterodimerization in live HEK293T cells
Assay type: cell-based

EC50 (read-out: EC50)	SMILES	EC50
	Cc1cc(C)cc(C(=O)N(NC(=O)c2ccc3c(c2C)CCCO3)C(C)(C)C)c1 [CF, chromafenozide]	4.76 µM
2.2 µM	CC(C)(O)CC[C@@H](O)[C@](C)(O)[C@H]1CC[C@@]2(O)C3=CC(=O)[C@@H]4C[C@@H](O)[C@@H](O)C[C@]4(C)[C@H]3CC[C@]12C [20E, 20-hydroxyecdysone]	
